# Assay results: patent US7993884B2, “Beta-xylosidase for conversion of plant cell wall carbohydrates to simple sugars” (The United States of America as represented by the …, priority 2006, dated 2011)
# Where a chain is given by its changes, count along the chain named. Numbers in names are those of the source. Where “and” joins values, the source holds several entries; their conditions need not be identical. Equal values may be shown once. Read-outs that look alike come from different tables or passages of the source.
# B1: Selenomonas ruminantium GA192 β-D-xylosidase (SXA, parent SEQ ID NO: 2) variant E186A (Pseudoselenomonas ruminantium; E186A) (protein)
# chain: MNIQNPVLKGFNPDPSIVRAGDDYYIATSTFEWFPGVQIHHSKDLVHWHLVAHPLSTTEFLDMKGNPDSGGIWAPDLSYADGKFWLIYTDVKVVDGMWKDCHNYLTTAEDIKGPWSKPILLNGAGFDASLFHDPSGKKYLVNMYWDQRVYHHNFYGIALQEYSVAEEKLIGKPEIIYKGTDIAYTAGPHLYYINDMYYLMTAEGGTTYQHSETIARSKTIHGPYEIQPDYPLLSAWKEVHNPLQKCGHASLVETQNGQWYLAHLTGRPLPAPAGFPSREREQHAFCPLGRETAIQKIEWQDGWPVVVGGQQGSLEVEAPDLPQQEWAPTYEERDDFDKDTLNINFQTLRIPFSEHLGSLTARPGFLRLYGRESLQSKFTQAHIARRWQSFNFDAGTSVEFSPNSFQQMAGLTCYYNTENWSSIHVTWNEEKGRIIDLVTADNGTFSMPLAGAEIPIPDEVKTVHFKVSVRGRIYQYAYSFDGETFHTLPIELPSWKLSDDYVRGGGFFTGAFVGINAIDITGTALPADFDYFTYKELD
# B2: Selenomonas ruminantium GA192 β-D-xylosidase (SXA, parent SEQ ID NO: 2) variant D127A (Pseudoselenomonas ruminantium; D127A) (protein)
# chain: B1 chain with D127A, A186E
# B3: Selenomonas ruminantium GA192 β-D-xylosidase (SXA, parent SEQ ID NO: 2) variant H248A (Pseudoselenomonas ruminantium; H248A) (protein)
# chain: B1 chain with A186E, H248A
# B4: Selenomonas ruminantium GA192 β-D-xylosidase (SXA, parent SEQ ID NO: 2) variant R290A (Pseudoselenomonas ruminantium; R290A) (protein)
# chain: B1 chain with A186E, R290A
# B5: Selenomonas ruminantium GA192 β-D-xylosidase (SXA, parent SEQ ID NO: 2) variant D14A (Pseudoselenomonas ruminantium; D14A) (protein)
# chain: B1 chain with D14A, A186E
# What was measured:
# SXA [1] = target: T1, SXA (Selenomonas ruminantium, UniProt O52575); test: SXA-catalyzed hydrolysis of 4NP-glycoside substrates, initial rates (Methods A and B); assay type: biochemical; settings: for Relative Rate: 5 mM 4NP glycoside, 100 mM succinate-NaOH, pH 5.3, 25° C., Method A, initial rate relative to 4NPX;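 on all read-outs here: initial rates from 4-nitrophenol release, tracked by absorbance over roughly 0.3 min and converted using product-minus-substrate extinction differences, in 1 mL mixtures started by enzyme addition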
# SXA [2] = target: T1, SXA; settings: for Km: 100 mM succinate-NaOH, pH 5.3, 25° C. (Example 1)
# [3] = target: T2, Selenomonas ruminantium GA192 β-D-xylosidase (SXA), wild type, SEQ ID NO: 2 (Pseudoselenomonas ruminantium, UniProt O52575); test: Steady-state kinetics of SXA with 4NPX2, A2 and X2-X6 by HPLC (Example 1)
# SXA [4] = target: T1, SXA; settings: for Km / kcat: 100 mM succinate-NaOH, improved quench (Example 3); for Km / kcat / kcat lower than previous determination (Example 1) / kcat/Km lower than previous determination (Example 1): pH 5.3, 25° C.; for factor by which kcat of SXA is higher than that of the Bacillus pumilus enzyme: SXA pH 5.3, 25° C. vs B. pumilus pH 7.15, 25° C.
# [5] = target: T2, Selenomonas ruminantium GA192 β-D-xylosidase (SXA), wild type, SEQ ID NO: 2; test: Steady-state kinetics of SXA with X2-X6, improved quenching, HPLC (Example 3); settings: for factor by which kcat is higher than that of the Bacillus pumilus enzyme: SXA pH 5.3 vs B. pumilus pH 7.15, 25° C
# [6] = substrate: O=[N+]([O-])c1ccc(O[C@@H]2OC[C@@H](O)[C@H](O)[C@H]2O)cc1; test: purified protein, by the assay type; settings: other: 100 mM succinate-NaOH, pH 5.3, 25° C, Method A
# [7] = substrate: O=[N+]([O-])c1ccc(O[C@@H]2O[C@@H](CO)[C@H](O)[C@H]2O)cc1; test: purified protein, by the assay type; settings: other: 100 mM succinate-NaOH, pH 5.3, 25° C, Method A
# [8] = 100 mM succinate-NaOH, pH 5.3, 25° C
# [9] = hydrolysis of X6, pH 5.30, 25° C.
# [10] = pH 5.3, 25° C (improved technique), approximate
# [11] = pH 5.3, 25° C (Example 1), approximate
molecule,measurement,setting,value
O=[N+]([O-])c1ccc(O[C@H]2O[C@H](CO)[C@@H](O)[C@H](O)[C@H]2O)cc1 [4-Nitrophenyl-α D-glucopyranoside],Relative Rate,SXA [1],<10^−6
O=[N+]([O-])c1ccc(O[C@H]2O[C@H](CO)[C@H](O)[C@H](O)[C@H]2O)cc1 [4-Nitrophenyl-α-D-galactopyranoside],Relative Rate,SXA [1],<10^−6
O=[N+]([O-])c1ccc(O[C@H]2O[C@H](CO)[C@@H](O)[C@H](O)[C@@H]2O)cc1 [4-Nitrophenyl-α-D-mannopyranoside],Relative Rate,SXA [1],<10^−6
O=[N+]([O-])c1ccc(O[C@H]2OC[C@@H](O)[C@H](O)[C@H]2O)cc1 [4-Nitrophenyl-α-D-xylopyranoside],Relative Rate,SXA [1],<10^−6
O=[N+]([O-])c1ccc(O[C@@H]2OC[C@H](O)[C@H](O)[C@H]2O)cc1 [4-Nitrophenyl-α-L-arabinopyranoside],Relative Rate,SXA [1],<10^−6
C[C@@H]1O[C@@H](Oc2ccc([N+](=O)[O-])cc2)[C@@H](O)[C@H](O)[C@@H]1O [4-Nitrophenyl-α-L-fucopyranoside],Relative Rate,SXA [1],<10^−6
C[C@@H]1O[C@@H](Oc2ccc([N+](=O)[O-])cc2)[C@H](O)[C@H](O)[C@H]1O [4-Nitrophenyl-α-L-rhamnopyranoside],Relative Rate,SXA [1],<10^−6
C[C@H]1O[C@@H](Oc2ccc([N+](=O)[O-])cc2)[C@H](O)[C@@H](O)[C@H]1O [4-Nitrophenyl-β-D-fucopyranoside],Relative Rate,SXA [1],<10^−6
O=[N+]([O-])c1ccc(O[C@@H]2O[C@H](CO)[C@H](O)[C@H](O)[C@H]2O)cc1 [4-Nitrophenyl-β-D-galactopyranoside],Relative Rate,SXA [1],<10^−6
O=[N+]([O-])c1ccc(O[C@@H]2O[C@H](CO)[C@@H](O)[C@H](O)[C@H]2O)cc1 [4-Nitrophenyl-β-D-glucopyranoside],Relative Rate,SXA [1],<10^−6
O=[N+]([O-])c1ccc(O[C@@H]2O[C@H](CO)[C@@H](O)[C@H](O)[C@@H]2O)cc1 [4-Nitrophenyl-β-D-mannopyranoside],Relative Rate,SXA [1],<10^−6
O=[N+]([O-])c1ccc(O[C@H]2OC[C@H](O)[C@H](O)[C@H]2O)cc1 [4-Nitrophenyl-β-L-arabinopyranoside],Relative Rate,SXA [1],<10^−6
same,"rate relative to that of 4NPX, first inspection","SXA [1]; reaction conditions of Table 2, later attributed to a contaminant",less than 0.1%
C[C@@H]1O[C@H](Oc2ccc([N+](=O)[O-])cc2)[C@@H](O)[C@H](O)[C@@H]1O [4-Nitrophenyl-β-fucopyranoside],Relative Rate,SXA [1],<10^−6
"OC[C@@H]1O[C@@H](OC[C@@H]2OC(O)[C@H](O)[C@H]2O)[C@H](O)[C@H]1O (stereo partly drawn) [A2, 1,5-α-L-arabinobiose]",Km,SXA [2],1200 ± 100 µM
same,factor by which kcat is reduced in comparison to 4NPA,"SXA [2]; pH 5.3, 25° C.",36
same,factor by which kcat is reduced in comparison to X2,"SXA [2]; pH 5.3, 25° C.",5600
same,relative kcat values,"SXA [2]; pH 5.3 and 25° C., relative to A2",1
same,factor by which kcat is reduced vs X2,[3],5600 fold
same,kcat,[3]; [8],0.074 ± 0.003 s⁻¹
same,kcat factor between 4NPA and A2,[3]; 4NPA larger / A2 reduced,36 fold
same,relative kcat value,"[3]; pH 5.3, 25° C, A2 = 1",1
"OC1OC[C@@H](O[C@@H]2OC[C@@H](O[C@@H]3OC[C@@H](O)[C@H](O)[C@H]3O)[C@H](O)[C@H]2O)[C@H](O)[C@H]1O (stereo partly drawn) [X3, 1,4-β-D-xylotriose]",Km,SXA [2],3800 µM
same,"time of peak height of intermediate product, observed","SXA [2]; hydrolysis of X4, pH 5.30, 25° C.",4130 s
same,"time of peak height of intermediate product, observed",SXA [2]; [9],10822 s
same,pH-independent kcat,SXA [4],98.0±2.3
same,Km,SXA [4],2120 ± 100 µM
same,kcat,SXA [4],approximately 95.1 s^−1
same,pKa1 of kcat versus pH,"SXA [4]; Eq. 6, I=0.3 M, 25° C.",3.21
same,pKa1 of kcat/Km versus pH,"SXA [4]; Eq. 6, I=0.3 M, 25° C.",4.80±0.06
same,pKa2 of kcat versus pH,"SXA [4]; Eq. 6, I=0.3 M, 25° C.",7.53±0.06
same,pKa2 of kcat/Km versus pH,"SXA [4]; Eq. 6, I=0.3 M, 25° C.",7.30±0.04
same,pKa1 of kcat versus pH,"SXA [4]; Eq. 6, I=0.3 M, 25° C., listed as 1,4-β-D-xylotriose",3.21±0.27
same,pKa1 of 1/Km versus pH,"SXA [4]; Eq. 7, I=0.3 M, 25° C.",4.76±0.05
same,pKa2 of 1/Km versus pH,"SXA [4]; Eq. 7, I=0.3 M, 25° C.",7.76±0.14
same,factor by which kcat of SXA is higher than that of the Bacillus pumilus enzyme,SXA [4],32
same,lower affinity of dianionic SXA (D14^−E186^−) than monoanionic SXA (D14^−E186^H),SXA [4]; from pH dependencies of 1/Km,3.1 fold and 3 fold
same,pH-independent kcat/Km,"SXA [4]; kcat/Km versus pH, Eq. 6, I=0.3 M, 25° C. (FIG. 20)",58.9±3.3 mM^−1s^−1
same,kcat lower than previous determination (Example 1),SXA [4],45%
same,kcat/Km lower than previous determination (Example 1),SXA [4],1%
same,kcat,[3]; [8],172 s⁻¹ and 172 ± 14 s⁻¹
same,kcat,[5]; [8],95.1 ± 1.5 s⁻¹
same,factor by which kcat is higher than that of the Bacillus pumilus enzyme,[5],32
same,"affinity of dianionic SXA (D14^−E186^−), lower than that of monoanionic SXA (D14^−E186^H)",[5]; from pH dependence of 1/Km,3.1 fold and 3 fold
same,kcat,[5]; [10],approximately 95.1 sec^−1
same,pH-independent kcat,"[5]; pH profile, I=0.3 M, 25° C",98.0±2.3
"OC1OC[C@@H](O[C@@H]2OC[C@@H](O[C@@H]3OC[C@@H](O[C@@H]4OC[C@@H](O)[C@H](O)[C@H]4O)[C@H](O)[C@H]3O)[C@H](O)[C@H]2O)[C@H](O)[C@H]1O (stereo partly drawn) [X4, 1,4-β-D-xylotetraose]",Km,SXA [2],4000 µM
same,"time of peak height of intermediate product, observed",SXA [2]; [9],8260 s
same,Km,SXA [4],2750 ± 230 µM
same,kcat,SXA [4],approximately 91.6 s^−1
same,factor by which kcat of SXA is higher than that of the Bacillus pumilus enzyme,SXA [4],31
same,kcat lower than previous determination (Example 1),SXA [4],39%
same,kcat/Km lower than previous determination (Example 1),SXA [4],12%
same,kcat,[3]; [8],150 s⁻¹ and 150 ± 5 s⁻¹
same,kcat,[3]; [11],approximately 150 sec^−1
same,kcat,[5]; [8],91.6 ± 2.3 s⁻¹
same,factor by which kcat is higher than that of the Bacillus pumilus enzyme,[5],31
same,kcat,[5]; [10],approximately 91.6 sec^−1
"OC1OC[C@@H](O[C@@H]2OC[C@@H](O[C@@H]3OC[C@@H](O[C@@H]4OC[C@@H](O[C@@H]5OC[C@@H](O)[C@H](O)[C@H]5O)[C@H](O)[C@H]4O)[C@H](O)[C@H]3O)[C@H](O)[C@H]2O)[C@H](O)[C@H]1O (stereo partly drawn) [X5, 1,4-β-D-xylopentaose]",Km,SXA [2],3700 µM
same,"time of peak height of intermediate product, observed",SXA [2]; [9],3138 s
same,Km,SXA [4],2860 ± 380 µM
same,kcat,SXA [4],approximately 77.2 s^−1
same,factor by which kcat of SXA is higher than that of the Bacillus pumilus enzyme,SXA [4],20
same,kcat lower than previous determination (Example 1),SXA [4],49%
same,kcat/Km lower than previous determination (Example 1),SXA [4],34%
same,kcat,[3]; [8],150 s⁻¹ and 150 ± 15 s⁻¹
same,kcat,[3]; [11],approximately 150 sec^−1
same,kcat,[5]; [8],77.2 ± 3.6 s⁻¹
same,factor by which kcat is higher than that of the Bacillus pumilus enzyme,[5],20
same,kcat,[5]; [10],approximately 77.2 sec^−1
"OC1OC[C@@H](O[C@@H]2OC[C@@H](O[C@@H]3OC[C@@H](O[C@@H]4OC[C@@H](O[C@@H]5OC[C@@H](O[C@@H]6OC[C@@H](O)[C@H](O)[C@H]6O)[C@H](O)[C@H]5O)[C@H](O)[C@H]4O)[C@H](O)[C@H]3O)[C@H](O)[C@H]2O)[C@H](O)[C@H]1O (stereo partly drawn) [X6, 1,4-β-D-xylohexaose]",Km,SXA [2],2700 µM
same,Km,SXA [4],3120 ± 210 µM
same,kcat,SXA [4],approximately 81.5 s^−1
same,factor by which kcat of SXA is higher than that of the Bacillus pumilus enzyme,SXA [4],27
same,kcat lower than previous determination (Example 1),SXA [4],15%
same,kcat/Km lower than previous determination (Example 1),SXA [4],25%
same,kcat,[3]; [8],96 s⁻¹ and 96 ± 7 s⁻¹
same,kcat,[5]; [8],81.5 ± 2.0 s⁻¹
same,factor by which kcat is higher than that of the Bacillus pumilus enzyme,[5],27
same,kcat,[5]; [10],approximately 81.5 sec^−1
B1,Km,[6],1100 ± 50 µM
same,Km,[7],1320 ± 110 µM
B2,Km,[6],881 ± 59 µM
B3,Km,[6],1050 ± 70 µM
B4,Km,[6]; not well determined (highest 4NPX 5 mM),50300 ± 8800 µM
B5,Km,[6],777 ± 36 µM
same,Km,[7],771 ± 29 µM
